{
  "source": "patent US20060179499A1",
  "about": "“Non-human animal models for diabetic complications and their uses” (Biomedical Research Models, Inc., priority 2004, published 2006)",
  "key": {"BBZDR/Wor rats [1]": {"tested_on": "BBZDR/Wor rats", "experiment": "Environmental induction of diabetes in BBZDR/Wor rats (during initial development of the strain)", "type": "in vivo, rat", "protocol": "(§1) During the initial development of the BBZDR/Wor strain, we performed several experiments to determine whether BBZDR/Wor animals are susceptible to other environmental triggers of diabetes. […] Lean and obese BBZDR/Wor rats were treated with either the TLR3 ligand, poly I:C, or poly I:C and KRV and the incidence of diabetes was determined. […] In contrast, 35-64% of animals treated with poly I:C+KRV became diabetic. We consistently observed a higher incidence of diabetes among lean BBZDR/Wor animals as compared to obese rats. More experiments will need to be performed to determine whether these differences are statistically significant. We recently revisited the poly I:C experiments in the now, fully-inbred (>40 generations) BBZDR/Wor rat line. […] In contrast to our previous results, we observed that 40% of the lean animals and 50% of the obese females developed hyperglycemia."}, "BBZDR/Wor rats [2]": {"tested_on": "BBZDR/Wor rats", "experiment": "Preliminary poly I:C experiment in fully-inbred BBZDR/Wor rat line, onset of diabetes", "type": "in vivo", "conditions": "fully-inbred (>40 generations) line, 5 μg/gm body weight, 3× a week", "protocol": "as §1"}, "BBDR/Wor rats": {"tested_on": "BBDR/Wor rats", "conditions": "cited from earlier work"}, "[3]": {"tested_on": "dorsal root explants and cultured neurons", "conditions": "application to dorsal root explants and cultured neurons; cited from earlier work"}},
  "data": [
    {"substance": "polyinosine:polycytidylic acid [Poly I:C]", "values": [
      {"measurement": "% Diabetic With Treatment", "setting": "BBZDR/Wor rats [1]; Lean BBZDR/Wor rats", "result": 0, "unit": "%"},
      {"measurement": "incidence of diabetes", "setting": "BBZDR/Wor rats [1]; Lean and obese BBZDR/Wor rats together", "result": "no animals treated with poly I:C alone developed diabetes"},
      {"measurement": "% Diabetic With Treatment", "setting": "BBZDR/Wor rats [1]; Obese BBZDR/Wor rats", "result": 0, "unit": "%"},
      {"measurement": "animals that developed hyperglycemia", "setting": "BBZDR/Wor rats [2]; lean female animals", "result": 40, "unit": "%"},
      {"measurement": "animals that developed hyperglycemia", "setting": "BBZDR/Wor rats [2]; obese females", "result": 50, "unit": "%"},
      {"measurement": "induction of hyperglycemia", "setting": "BBDR/Wor rats; low doses, poly I:C alone", "result": "do not induce hyperglycemia"},
      {"measurement": "incidence of diabetes", "setting": "BBDR/Wor rats; poly I:C given just prior to KRV infection", "result": "~100", "unit": "%"},
      {"measurement": "effect on axonal outgrowth", "setting": "[3]", "result": "inhibits axonal outgrowth"}
    ]}
  ]
}
